The record followed here is ChEMBL document CHEMBL4152321, “Synthesis and antiplasmodial activity of glyco-conjugate hybrids of phenylhydrazono-indolinones and glycosylated 1,2,3-triazolyl-methyl-indoline-2,3-diones” (Eur J Med Chem, 2018).

pIC50: −log10 of the molar value.

For data set [1], the system named is Plasmodium falciparum. The experiment in a line: Antiplasmodial activity against chloroquine-sensitive Plasmodium falciparum 3D7 infected in human erythrocytes after 72 hrs by SYBR Green 1 staining based fluorescence assay. It counts as functional, organism-based. As to conditions: 3D7, 72 h.
The subject of data set [2] is Plasmodium falciparum. The data set is described as follows: Antiplasmodial activity against chloroquine-resistant Plasmodium falciparum K1 infected in human erythrocytes after 72 hrs by SYBR Green 1 staining based fluorescence assay. It counts as functional, organism-based. The following applies: K1, 72 h.
A short description of data set [3]: Cytotoxicity against African green monkey Vero cells after 3 days by resazurin dye based fluorescence assay. As to conditions: chlorocebus sabaeus. The class given is cell-based. (In general: Alamar Blue is a resazurin reagent that responds to reducing activity.)
Data set [4] is described as follows: Selectivity index, ratio of CC50 for African green monkey Vero cells to IC50 for chloroquine-sensitive Plasmodium falciparum 3D7 infected in human erythrocytes. As to conditions: read-out: Ratio CC50/IC50. It counts as toxicity, cell-based.
Data set [5] is described as follows: Selectivity index, ratio of CC50 for African green monkey Vero cells to IC50 for chloroquine-resistant Plasmodium falciparum K1 infected in human erythrocytes. The following applies: read-out: Ratio CC50/IC50. The class given is toxicity, cell-based.

Broadly, the pIC50 is the IC50 on a negative log10 scale, so that one unit is a factor of ten. Usually CC50 stands for the concentration giving 50% cytotoxicity.

In the case of `CC(=O)C[C@H]1O[C@@H](On2cc(CN3C(=O)/C(=N\Nc4cccc(Cl)c4)c4ccccc43)nn2)[C@H](OC(C)=O)[C@@H](OC(C)=O)[C@@H]1OC(C)=O`, the negative-log IC50 (pIC50) in the data set on Plasmodium falciparum [1] is 5.40; in the data set with Plasmodium falciparum [2] it was 5.06. In addition, the CC50 at 72 h in data set [3] was 117 µM. Besides, the values for the selectivity ratio in data set [4] and in data set [5] were 29.4 and 13.4, respectively.

In the case of `COc1ccc(N/N=C2\C(=O)N(Cc3cn(C[C@H]4O[C@@H]5OC(C)(C)O[C@@H]5[C@H]4O)nn3)c3ccccc32)cc1`, the pIC50 was 5.42 with Plasmodium falciparum [1] and 5.48 with Plasmodium falciparum [2]. The molecule further yielded a CC50 at 72 h in data set [3] of 74.5 µM. The selectivity ratio was 19.6 in data set [4] and 22.7 in data set [5].

In the case of `O=C1/C(=N\Nc2ccc(Br)cc2)c2ccccc2N1Cc1cn(O[C@@H]2O[C@H](CO)[C@H](O)[C@H](O)[C@H]2O)nn1`, the pIC50 was 5.44 with Plasmodium falciparum [1] and 5.33 in the data set on Plasmodium falciparum [2]. In data set [3], this molecule registered a CC50 at 72 h of 91.5 µM. The selectivity ratio turned out to be 25.8 in data set [4] and 19.5 in data set [5].

Regarding `COc1ccc(N/N=C2\C(=O)N(Cc3cn(O[C@@H]4O[C@H](CC(C)=O)[C@@H](OC(C)=O)[C@H](OC(C)=O)[C@H]4OC(C)=O)nn3)c3ccccc32)cc1`, the pIC50 with Plasmodium falciparum [1] is 5.52; with Plasmodium falciparum [2] it was 5.38. The same molecule showed a CC50 at 72 h in data set [3] of 95.3 µM. Further, the selectivity ratio in data set [4] is 31.2; in data set [5], 23.1.

For the molecule `CC1(C)O[C@H]2O[C@H](Cn3cc(CN4C(=O)/C(=N\Nc5ccc(Br)cc5)c5ccccc54)nn3)[C@H](O)[C@H]2O1`, the figures for the pIC50 in the data set on Plasmodium falciparum [1] and in the data set on Plasmodium falciparum [2] were 5.39 and 5.45, respectively. The molecule further showed a CC50 at 72 h in data set [3] of 72.9 µM. For the same molecule, the selectivity ratio came out at 18 in data set [4] and 20.7 in data set [5].

On to `CC1(C)O[C@H]2O[C@H](Cn3cc(CN4C(=O)C(=O)c5ccccc54)nn3)[C@H](O)[C@H]2O1`, for which the results for the negative logarithm of the IC50 (pIC50) in the data set with Plasmodium falciparum [1] and with Plasmodium falciparum [2] were 5.36 and 5.47, respectively. Further, in data set [3], the CC50 at 72 h is above 200 µM. Moreover, the values for the selectivity ratio in data set [4] and in data set [5] were above 46.2 and above 58.8, respectively.

For the molecule `CC(=O)C[C@H]1O[C@@H](On2cc(CN3C(=O)/C(=N\Nc4ccc(C#N)cc4)c4ccccc43)nn2)[C@H](OC(C)=O)[C@@H](OC(C)=O)[C@@H]1OC(C)=O`, the pIC50 with Plasmodium falciparum [1] was 5.48; in the data set with Plasmodium falciparum [2], 5.24. Moreover, the CC50 at 72 h in data set [3] is 75.4 µM. Further, the selectivity ratio in data set [4] was 22.6; in data set [5] it was 13.2.

As to `O=C1/C(=N\Nc2cccc(Cl)c2)c2ccccc2N1Cc1cn(O[C@@H]2O[C@H](CO)[C@H](O)[C@H](O)[C@H]2O)nn1`, the pIC50 in the data set with Plasmodium falciparum [1] is 5.17; with Plasmodium falciparum [2], 5.58. Moreover, the half-maximal cytotoxic concentration (CC50) at 72 h in data set [3] is 84.5 µM. Besides, the selectivity ratio was 12.5 in data set [4] and 32.2 in data set [5].

In the case of `O=C1/C(=N\Nc2ccccc2)c2ccccc2N1Cc1cn(O[C@@H]2O[C@H](CO)[C@@H](O)[C@H](O)[C@H]2O)nn1`, the pIC50 with Plasmodium falciparum [1] was 5.33; in the data set with Plasmodium falciparum [2] it was 5.09. The CC50 at 72 h in data set [3] worked out at 88.5 µM. The selectivity ratio in data set [4] turned out to be 18.8; in data set [5], 10.9.

Take `O=C1/C(=N\Nc2ccc(F)cc2)c2ccccc2N1Cc1cn(O[C@@H]2O[C@H](CO)[C@H](O)[C@H](O)[C@H]2O)nn1`: the pIC50 was 5.18 in the data set with Plasmodium falciparum [1] and 5.49 with Plasmodium falciparum [2]. Further, in data set [3], it took 92.1 µM to reach half-maximal cytotoxicity (CC50 at 72 h). Moreover, the selectivity ratio stood at 13.9 in data set [4] and 28.5 in data set [5].

Consider `CC1(C)O[C@H]2[C@@H](O1)[C@@H](Cn1cc(CN3C(=O)/C(=N\Nc4ccc(F)cc4)c4ccccc43)nn1)O[C@@H]1OC(C)(C)O[C@@H]12`, for which the values for the pIC50 in the data set on Plasmodium falciparum [1] and in the data set with Plasmodium falciparum [2] were 5.51 and 5.58, respectively. Moreover, half-maximal cytotoxicity in data set [3] (CC50 at 72 h) was put at 122 µM. The selectivity ratio is 39.9 in data set [4] and 46.4 in data set [5].
